Patent US20240252508A1, “Novel glucose uptake inhibitors for use in the treatment of cancer” (NOVELYEAST BV, priority 2021, published 2024)

Assays:
[1] = test system: A549 lung adenocarcinoma cells; experiment: A549 cell proliferation / growth inhibition; format: cell-based, human; settings: for Selected from primary screen for growth inhibition of A549 cells at 50 μM: 50 μM compound, 1 mM glucose; for Selected for having an IC50 ratio (10 mM glucose: 1 mM glucose) of A549 growth higher than WBC-A: IC50 on 10 mM vs 1 mM glucose, compared with WBC-A
Experimental: The analog library (n=203) was screened for inhibition of growth of A549 cells on RPMI medium supplemented with 1 mM glucose. DMSO (green bar) and WBC-A (orange bar) served as negative and positive control, respectively. In addition, the reference glucose transport inhibitors STF-31, Fasentin, BAY-876, WZB-117 and Cytochalasin B were included and indicated in red. Compounds were added at 50 μM concentration. Number of cells was determined by counting nuclei stained by Hoechst after three days of growth.
For both adherent A549 and MCF10Δ H-RAS^V12 cell lines, growth curves were established using the IncuCyte® ZOOM technology. By collecting phase contrast images, the IncuCyte® software provides a calculated confluency percentage from which growth curves can be deducted.
Cells were seeded at a density of 1000-1500 cells/well in a Nunc-Edge™ 96-well plate (Thermo Fisher Scientific) and growth was typically measured over 3 to 5 days. For the measurement of apoptosis induction using the MCF10Δ H-RAS^V12 cell line, the IncuCyte® Caspase-3/7 green dye was added to the medium in the recommended concentration at the beginning of the growth curve experiment. Apoptosis was detected by taking fluorescent images by excitation at 488 nm followed by IncuCyte® software analysis. Cell growth of the KMS-12-PE multiple myeloma cell line, which grows in suspension, was measured by manual cell counting. Cells were initially seeded at a density of 10^4 cells/well and incubated for 4 days after which the cell number was counted. For all cell lines, the same medium used for pregrowth was also used for the growth curve experiment, albeit with different glucose concentrations depending on the experimental design. With compound administration, the final concentration of DMSO never exceeded 0.1%. Typically, at least four technical repeats were included per condition.

[2] = test system: tps1Δ cells; experiment: Growth rescue of tps1Δ strain on glucose (growth curves, 2% galactose medium); format: cell-based, S. cerevisiae; settings: 100 μM compound, 2.5 mM glucose
Experimental: Growth curves were made by measuring OD595 in a 96-well plate using the Multiskan™ FC Microplate Photometer (Thermo Fisher Scientific). Typically, for tps1Δ rescue experiments (FIG. 2b-e; FIG. 4a), cells were (pre)grown in Complete Synthetic medium containing 2% galactose.
Compounds were always added 10 min prior to glucose addition to ensure maximal interaction between the cells and compounds. Cells originating from the preculture were harvested, washed in medium without sugar, after which they were resuspended to an OD of 0.1 in 200 μL of the appropriate medium. At least three technical replicates were included per condition. OD595 was measured at 30° C. every 30 min with a 10-min shaking interval.

SMILES	Selected from primary screen for growth inhibition of A549 cells at 50 μM [1]	Selected for having an IC50 ratio (10 mM glucose: 1 mM glucose) of A549 growth higher than WBC-A [1]	Rescue of the tps1Δ strain on 2.5 mM glucose at 100 μM [2]
Cc1nc(Sc2nnc(-c3ccncc3)n2C)c2c(-c3cccs3)csc2n1 [26A]	Yes	Lower IC50 ratio	Yes
CC(=O)CSc1nc(C)nc2scc(-c3cccs3)c12 [26B]	No	–	No
Cc1nc(SCCN2CCOC2=O)c2c(-c3cccs3)csc2n1 [26C]	No	–	Yes
c1ccc(Cn2c(CN3CCCC3)nnc2Sc2ncnc3scc(-c4ccccc4)c23)cc1 [27A]	Yes	Lower IC50 ratio	No
Cc1nc(SCC(=O)N(C)Cc2ccco2)c2c(-c3cccs3)csc2n1 [27B]	No	–	No
OCCSc1ncnc2sc3c(c12)CCCC3 [27C]	No	–	No
Cc1sc2nc(CN3CCOCC3)nc(Sc3nnc4n3CCCCC4)c2c1C [28A]	No	–	No
Cc1nc(SCC(=O)NC(=O)NCc2ccco2)c2c(-c3cccs3)csc2n1 [28B]	No	–	No
Cc1nc(SCC(=O)N2CCOCC2)c2cc(-c3ccccc3)sc2n1 [28C]	No	–	No
CSc1nnc(Sc2nc(C)nc3scc(-c4cccs4)c23)s1 [29A]	No	–	No
CC(=O)NCc1ccc(C(=O)CSc2nc(C)nc3scc(-c4cccs4)c23)o1 [29B]	No	–	Yes
Cc1nc(NCC(=O)Nc2c(C)cccc2C)c2c(-c3cccs3)csc2n1 [29C]	No	–	No
Cc1nc(Sc2nnc3ccccn23)c2c(-c3cccs3)csc2n1 [30A]	No	–	No
CCCNC(=O)CN1CCC(Nc2nc(C)nc3scc(-c4cccs4)c23)CC1 [30B]	No	–	No
OCCSc1ncnc2sc(-c3ccccc3)cc12 [30C]	No	–	No
CC1CCc2c(sc3ncnc(Sc4nnc5n4CCCCC5)c23)C1 (centres unmarked) [31A]	No	–	No
Cc1nc(SCC(=O)NCC(F)(F)F)c2c(-c3cccs3)csc2n1 [31B]	No	–	No
Cc1nc(SCC(=O)OC(C)(C)C)c2c3c(sc2n1)CCCC3 [31C]	No	–	No
CNc1nnc(Sc2nc(C)nc3scc(-c4cccs4)c23)s1 [32A]	No	–	No
Cc1nc(SCC(=O)NC(C)(C)C)c2c(-c3cccs3)csc2n1 [32B]	Yes	Lower IC50 ratio	Yes
Cc1nc(SCCOc2ccc(F)cc2)c2c(-c3cccs3)csc2n1 [32C]	No	–	No
Cc1nc(N(C)Cc2nnc3n2CCCCC3)c2c(-c3ccccc3)csc2n1 [33A]	No	–	No
